Consider four molecules from paper PMC8670521, “Identification and characterization of an atypical Gαs-biased β2AR agonist that fails to evoke airway smooth muscle cell tachyphylaxis” (Proceedings of the National Academy of Sciences of the …, 2021).

Test [1] has as its target T1, β2AR tagged at its carboxyl terminus (PathHunter ECA) (Homo sapiens, UniProt P07550).
T1 construct: gene ADRB2; C-terminal complementary β-galactosidase fragment tag; DiscoverX PathHunter CHO cells co-expressing β-arrestin2 fused to fragment-deficient β-galactosidase (read-out)
As to the kind of experiment: β-arrestin2 recruitment, PathHunter enzyme complementation. The class given is cell-based. The conditions noted are these: […] min, […] °C, CHO cells.

The target in test [2] is T2, human β2AR (β2-adrenergic receptor) (Homo sapiens, UniProt P07550).
T2 construct: gene ADRB2; full-length receptor cDNA stably expressed in CHW-1102 (CHW-β2) cells, ~2,000 fmol/mg
T2 sequence (P07550 whole entry): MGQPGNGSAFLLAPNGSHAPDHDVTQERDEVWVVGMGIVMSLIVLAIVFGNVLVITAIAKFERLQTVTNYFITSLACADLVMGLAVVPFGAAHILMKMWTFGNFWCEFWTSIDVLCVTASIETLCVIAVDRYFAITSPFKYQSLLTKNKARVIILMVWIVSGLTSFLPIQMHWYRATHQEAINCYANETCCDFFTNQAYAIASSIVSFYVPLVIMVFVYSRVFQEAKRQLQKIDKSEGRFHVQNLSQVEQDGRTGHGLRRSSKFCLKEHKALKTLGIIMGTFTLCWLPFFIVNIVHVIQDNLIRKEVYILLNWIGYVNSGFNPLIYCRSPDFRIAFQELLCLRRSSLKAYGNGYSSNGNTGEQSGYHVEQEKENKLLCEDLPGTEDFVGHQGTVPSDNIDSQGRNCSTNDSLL
As to the kind of experiment: cAMP accumulation, competitive immunoassay. The class given is cell-based. From the text: cAMP accumulation, competitive immunoassay on human β2AR (β2-adrenergic receptor)
Background: cAMP levels reflect the balance of adenylyl cyclase and phosphodiesterase activity.

The mark [3] stands for this setting: agonist, […] min, […] °C, IBMX […], whole CHW-β[…] cells.

The EC50 is the concentration at which the effect is half-maximal. High values mean lower potency in that assay, low ones higher potency in that assay.

Read-outs that look alike come from different tables or passages of the source.

T1 sequence (P07550 whole entry, the tested form may be a part): as the sequence (P07550 whole entry) above

`COc1ccc(CC2=N[C@@H](CCCCN3C[C@H](Cc4ccc(O)cc4)N(CCCCC4CCCCC4)C3=O)CN2)cc1` [C1-S]: the “β-arrestin2 recruitment, PathHunter enzyme complementation” value in test [1] is reported as “lack of a response to C1-S in the β-arrestin ECA”. In test [2], this molecule displayed a half-maximal effective concentration (EC50) of 4.23 ± 1 µM.

For `COc1ccc(CC2=N[C@@H](CCCCN3C[C@H](Cc4ccc(O)cc4)N(CCCCC4CCCCC4)C3=O)CN2)cc1OC` [C2-S], a half-maximal response in test [2] (setting [3]) (EC50) required 6.67 ± 2.01 µM.

Take `CCOc1ccc(CC2=N[C@@H](CCCCN3C[C@H](Cc4ccc(O)cc4)N(CCCCC4CCCCC4)C3=O)CN2)cc1` [C3-S]: in test [2] (setting [3]), the EC50 stood at 4.31 ± 1.69 µM.

For `CC(C)CC1=N[C@@H](CCCCN2C[C@H](Cc3ccc(O)cc3)N(CCCCC3CCCCC3)C2=O)CN1` [C4-S], a half-maximal response in test [2] (setting [3]) (EC50) required 3.52 ± 0.52 µM.
